Four compounds from ChEMBL document CHEMBL5303573, “Mapping human microbiome drug metabolism by gut bacteria and their genes” (Nature, 2019) can be followed below.

Structures are written as SMILES.

The first data set in a line: The drug is tested on Bacteroides fragilis strain: HMW610 for biotransformation. The drug concentrations were measured before and after a 12-h incubation by liquid-chromatography-coupled mass spectrometry (LC–MS). The settings on record: 2 µM.
Consider `CC(C)(C#N)c1cc(Cn2cncn2)cc(C(C)(C)C#N)c1` [ANASTROZOLE], for which the “Bacterial Biotransformation” value is reported as “Compound NOT metabolized”.
As for `CCN(CC)CCNC(=O)c1ccc(NC(C)=O)cc1` [ACECAINIDE], the “Bacterial Biotransformation” value is given as “Compound NOT metabolized”.
Still for that read-out and setting: next, `CCCC(C)(COC(N)=O)COC(=O)NC(C)C` (stereo not given) [CARISOPRODOL]: “Compound metabolized”.
The same measure, in the same setting: next, `Clc1ccc(Cn2c(CN3CCCC3)nc3ccccc32)cc1` [CLEMIZOLE]: “Compound NOT metabolized”.

Another data set in a line: The drug is tested on Subdoligranulum variabile strain: DSM15176 for biotransformation. The drug concentrations were measured before and after a 12-h incubation by liquid-chromatography-coupled mass spectrometry (LC–MS). As to conditions: 2 µM.
Take `CCN(CC)CCNC(=O)c1ccc(NC(C)=O)cc1` [ACECAINIDE]: the “Bacterial Biotransformation” value is on record as “Compound NOT metabolized”.
Same read-out and setting: next, `Clc1ccc(Cn2c(CN3CCCC3)nc3ccccc32)cc1` [CLEMIZOLE]: “Compound NOT metabolized”.

For the next data set the following is noted: roseburia intestinalis, 12 h, 2 µM.
Description: The drug is tested on Roseburia intestinalis strain: L1-82 for biotransformation. The drug concentrations were measured before and after a 12-h incubation by liquid-chromatography-coupled mass spectrometry (LC–MS)
For `CC(C)(C#N)c1cc(Cn2cncn2)cc(C(C)(C)C#N)c1` [ANASTROZOLE], the “Bacterial Biotransformation” value was “Compound NOT metabolized”.
On the same count and under the same terms, next, `CCN(CC)CCNC(=O)c1ccc(NC(C)=O)cc1` [ACECAINIDE]: “Compound NOT metabolized”; `CCCC(C)(COC(N)=O)COC(=O)NC(C)C` (stereo not given) [CARISOPRODOL]: “Compound metabolized”; `Clc1ccc(Cn2c(CN3CCCC3)nc3ccccc32)cc1` [CLEMIZOLE]: “Compound NOT metabolized”.

Another data set in a line: The drug is tested on Collinsella intestinalis strain: DSM13280 for biotransformation. The drug concentrations were measured before and after a 12-h incubation by liquid-chromatography-coupled mass spectrometry (LC–MS). The settings on record: 2 µM.
Turning to `CCN(CC)CCNC(=O)c1ccc(NC(C)=O)cc1` [ACECAINIDE], the “Bacterial Biotransformation” value is “Compound NOT metabolized”.
Still for that read-out and setting: next, `CCCC(C)(COC(N)=O)COC(=O)NC(C)C` (stereo not given) [CARISOPRODOL]: “Compound NOT metabolized”; `Clc1ccc(Cn2c(CN3CCCC3)nc3ccccc32)cc1` [CLEMIZOLE]: “Compound NOT metabolized”.

The nature of another data set: The drug is tested on Blautia hansenii strain: DSM20583 for biotransformation. The drug concentrations were measured before and after a 12-h incubation by liquid-chromatography-coupled mass spectrometry (LC–MS). As to conditions: 2 µM.
Consider `CC(C)(C#N)c1cc(Cn2cncn2)cc(C(C)(C)C#N)c1` [ANASTROZOLE], for which the “Bacterial Biotransformation” value is recorded as “Compound metabolized”.
For the compound `CCCC(C)(COC(N)=O)COC(=O)NC(C)C` (stereo not given) [CARISOPRODOL], the “Bacterial Biotransformation” value was “Compound metabolized”.
Turning to `Clc1ccc(Cn2c(CN3CCCC3)nc3ccccc32)cc1` [CLEMIZOLE], the “Bacterial Biotransformation” value was “Compound metabolized”.

The conditions of another data set: segatella copri, 12 h, 2 µM.
Description: The drug is tested on Prevotella copri strain: DSM18205 for biotransformation. The drug concentrations were measured before and after a 12-h incubation by liquid-chromatography-coupled mass spectrometry (LC–MS)
As to `CC(C)(C#N)c1cc(Cn2cncn2)cc(C(C)(C)C#N)c1` [ANASTROZOLE], the “Bacterial Biotransformation” value is on record as “Compound metabolized”.
Same read-out and setting: next, `CCN(CC)CCNC(=O)c1ccc(NC(C)=O)cc1` [ACECAINIDE]: “Compound NOT metabolized”; `CCCC(C)(COC(N)=O)COC(=O)NC(C)C` (stereo not given) [CARISOPRODOL]: “Compound metabolized”.
Still for that read-out and setting: next, `Clc1ccc(Cn2c(CN3CCCC3)nc3ccccc32)cc1` [CLEMIZOLE]: “Compound NOT metabolized”.

Another data set is described as follows: The drug is tested on Escherichia coli strain: BW25113 for biotransformation. The drug concentrations were measured before and after a 12-h incubation by liquid-chromatography-coupled mass spectrometry (LC–MS). As to conditions: 2 µM.
With `CCN(CC)CCNC(=O)c1ccc(NC(C)=O)cc1` [ACECAINIDE], the “Bacterial Biotransformation” value is “Compound NOT metabolized”.
On the same count and under the same terms, next, `CCCC(C)(COC(N)=O)COC(=O)NC(C)C` (stereo not given) [CARISOPRODOL]: “Compound NOT metabolized”.

The next data set in a line: The drug is tested on Bacteroides cellulosilyticus strain: DSM14838 for biotransformation. The drug concentrations were measured before and after a 12-h incubation by liquid-chromatography-coupled mass spectrometry (LC–MS). As to conditions: 2 µM.
Take `CC(C)(C#N)c1cc(Cn2cncn2)cc(C(C)(C)C#N)c1` [ANASTROZOLE]: the “Bacterial Biotransformation” value is on record as “Compound NOT metabolized”.
Still for that read-out and setting: next, `CCCC(C)(COC(N)=O)COC(=O)NC(C)C` (stereo not given) [CARISOPRODOL]: “Compound metabolized”.

The conditions of the next data set: bacteroides eggerthii, 12 h, 2 µM.
Description: The drug is tested on Bacteroides eggerthii strain: DSM20697 for biotransformation. The drug concentrations were measured before and after a 12-h incubation by liquid-chromatography-coupled mass spectrometry (LC–MS)
Consider `CC(C)(C#N)c1cc(Cn2cncn2)cc(C(C)(C)C#N)c1` [ANASTROZOLE], for which the “Bacterial Biotransformation” value is “Compound metabolized”.
On the same count and under the same terms, next, `Clc1ccc(Cn2c(CN3CCCC3)nc3ccccc32)cc1` [CLEMIZOLE]: “Compound NOT metabolized”.

For a further data set the following is noted: akkermansia muciniphila, 12 h, 2 µM.
Description: The drug is tested on Akkermansia muciniphila strain: ATCC BAA-835 for biotransformation. The drug concentrations were measured before and after a 12-h incubation by liquid-chromatography-coupled mass spectrometry (LC–MS)
`CC(C)(C#N)c1cc(Cn2cncn2)cc(C(C)(C)C#N)c1` [ANASTROZOLE]: the “Bacterial Biotransformation” value was “Compound metabolized”.
Still for that read-out and setting: next, `CCN(CC)CCNC(=O)c1ccc(NC(C)=O)cc1` [ACECAINIDE]: “Compound NOT metabolized”; `CCCC(C)(COC(N)=O)COC(=O)NC(C)C` (stereo not given) [CARISOPRODOL]: “Compound NOT metabolized”.

The conditions of a further data set: bacteroides thetaiotaomicron, 12 h, 2 µM.
Description: The drug is tested on Bacteroides thetaiotaomicron strain: VPI-5482 for biotransformation. The drug concentrations were measured before and after a 12-h incubation by liquid-chromatography-coupled mass spectrometry (LC–MS)
As to `CC(C)(C#N)c1cc(Cn2cncn2)cc(C(C)(C)C#N)c1` [ANASTROZOLE], the “Bacterial Biotransformation” value is “Compound metabolized”.
Same read-out and setting: next, `CCN(CC)CCNC(=O)c1ccc(NC(C)=O)cc1` [ACECAINIDE]: “Compound NOT metabolized”; `CCCC(C)(COC(N)=O)COC(=O)NC(C)C` (stereo not given) [CARISOPRODOL]: “Compound metabolized”; `Clc1ccc(Cn2c(CN3CCCC3)nc3ccccc32)cc1` [CLEMIZOLE]: “Compound NOT metabolized”.

Another data set can be described thus: The drug is tested on Bacteroides sp. WH2 strain: WH2 for biotransformation. The drug concentrations were measured before and after a 12-h incubation by liquid-chromatography-coupled mass spectrometry (LC–MS). The settings on record: bacteroides sp. wh2, 12 h, 2 µM.
`CC(C)(C#N)c1cc(Cn2cncn2)cc(C(C)(C)C#N)c1` [ANASTROZOLE]: the “Bacterial Biotransformation” value is given as “Compound NOT metabolized”.
Still for that read-out and setting: next, `CCN(CC)CCNC(=O)c1ccc(NC(C)=O)cc1` [ACECAINIDE]: “Compound NOT metabolized”; `CCCC(C)(COC(N)=O)COC(=O)NC(C)C` (stereo not given) [CARISOPRODOL]: “Compound NOT metabolized”.
Regarding `Clc1ccc(Cn2c(CN3CCCC3)nc3ccccc32)cc1` [CLEMIZOLE], the “Bacterial Biotransformation” value was “Compound NOT metabolized”.

Another data set can be described thus: The drug is tested on Bifidobacterium breve strain: DSM20213 for biotransformation. The drug concentrations were measured before and after a 12-h incubation by liquid-chromatography-coupled mass spectrometry (LC–MS). As to conditions: 2 µM.
`CC(C)(C#N)c1cc(Cn2cncn2)cc(C(C)(C)C#N)c1` [ANASTROZOLE]: the “Bacterial Biotransformation” value is recorded as “Compound NOT metabolized”.
The same measure, in the same setting: next, `CCN(CC)CCNC(=O)c1ccc(NC(C)=O)cc1` [ACECAINIDE]: “Compound NOT metabolized”; `CCCC(C)(COC(N)=O)COC(=O)NC(C)C` (stereo not given) [CARISOPRODOL]: “Compound NOT metabolized”.
Regarding `Clc1ccc(Cn2c(CN3CCCC3)nc3ccccc32)cc1` [CLEMIZOLE], the “Bacterial Biotransformation” value was “Compound NOT metabolized”.

For a further data set the following is noted: bacteroides thetaiotaomicron, 12 h, 2 µM. This is another data set of the same source.
Description: The drug is tested on Bacteroides thetaiotaomicron strain: 7330 for biotransformation. The drug concentrations were measured before and after a 12-h incubation by liquid-chromatography-coupled mass spectrometry (LC–MS)
As for `CC(C)(C#N)c1cc(Cn2cncn2)cc(C(C)(C)C#N)c1` [ANASTROZOLE], the “Bacterial Biotransformation” value was “Compound metabolized”.
The same measure, in the same setting: next, `CCN(CC)CCNC(=O)c1ccc(NC(C)=O)cc1` [ACECAINIDE]: “Compound NOT metabolized”; `CCCC(C)(COC(N)=O)COC(=O)NC(C)C` (stereo not given) [CARISOPRODOL]: “Compound metabolized”; `Clc1ccc(Cn2c(CN3CCCC3)nc3ccccc32)cc1` [CLEMIZOLE]: “Compound NOT metabolized”.

The next data set in a line: The drug is tested on Eubacterium ventriosum strain: ATCC27560 for biotransformation. The drug concentrations were measured before and after a 12-h incubation by liquid-chromatography-coupled mass spectrometry (LC–MS). Type of data set: ADME. The arrangement: dose 2 uM, timepoint 0 vs 12 hours. As to conditions: 2 µM.
As to `CC(C)(C#N)c1cc(Cn2cncn2)cc(C(C)(C)C#N)c1` [ANASTROZOLE], the “Bacterial Biotransformation” value is reported as “Compound NOT metabolized”.
Still for that read-out and setting: next, `CCN(CC)CCNC(=O)c1ccc(NC(C)=O)cc1` [ACECAINIDE]: “Compound NOT metabolized”; `CCCC(C)(COC(N)=O)COC(=O)NC(C)C` (stereo not given) [CARISOPRODOL]: “Compound metabolized”.
Regarding `Clc1ccc(Cn2c(CN3CCCC3)nc3ccccc32)cc1` [CLEMIZOLE], the “Bacterial Biotransformation” value was “Compound NOT metabolized”.

The nature of a further data set: The drug is tested on Dorea formicigenerans strain: ATCC27755 for biotransformation. The drug concentrations were measured before and after a 12-h incubation by liquid-chromatography-coupled mass spectrometry (LC–MS). As to conditions: 2 µM.
In the case of `CC(C)(C#N)c1cc(Cn2cncn2)cc(C(C)(C)C#N)c1` [ANASTROZOLE], the “Bacterial Biotransformation” value is reported as “Compound NOT metabolized”.
Same read-out and setting: next, `CCN(CC)CCNC(=O)c1ccc(NC(C)=O)cc1` [ACECAINIDE]: “Compound NOT metabolized”.
On the same count and under the same terms, next, `CCCC(C)(COC(N)=O)COC(=O)NC(C)C` (stereo not given) [CARISOPRODOL]: “Compound NOT metabolized”; `Clc1ccc(Cn2c(CN3CCCC3)nc3ccccc32)cc1` [CLEMIZOLE]: “Compound NOT metabolized”.

The nature of the next data set: The drug is tested on Bacteroides vulgatus strain: ATCC8482 for biotransformation. The drug concentrations were measured before and after a 12-h incubation by liquid-chromatography-coupled mass spectrometry (LC–MS). As to conditions: phocaeicola vulgatus, 2 µM.
`CC(C)(C#N)c1cc(Cn2cncn2)cc(C(C)(C)C#N)c1` [ANASTROZOLE]: the “Bacterial Biotransformation” value is “Compound metabolized”.
Still for that read-out and setting: next, `CCN(CC)CCNC(=O)c1ccc(NC(C)=O)cc1` [ACECAINIDE]: “Compound NOT metabolized”; `CCCC(C)(COC(N)=O)COC(=O)NC(C)C` (stereo not given) [CARISOPRODOL]: “Compound metabolized”.
On the same count and under the same terms, next, `Clc1ccc(Cn2c(CN3CCCC3)nc3ccccc32)cc1` [CLEMIZOLE]: “Compound NOT metabolized”.

The nature of the next data set: The drug is tested on Blautia luti strain: DSM14534 for biotransformation. The drug concentrations were measured before and after a 12-h incubation by liquid-chromatography-coupled mass spectrometry (LC–MS). It counts as ADME. The arrangement: dose 2 uM, timepoint 0 vs 12 hours. As to conditions: 2 µM.
On to `CC(C)(C#N)c1cc(Cn2cncn2)cc(C(C)(C)C#N)c1` [ANASTROZOLE], for which the “Bacterial Biotransformation” value was “Compound NOT metabolized”.
The same measure, in the same setting: next, `CCN(CC)CCNC(=O)c1ccc(NC(C)=O)cc1` [ACECAINIDE]: “Compound NOT metabolized”.
Same read-out and setting: next, `Clc1ccc(Cn2c(CN3CCCC3)nc3ccccc32)cc1` [CLEMIZOLE]: “Compound NOT metabolized”.
